Experimental data from patent US11207320B2, “Compositions and methods for cancer expressing PDE3A or SLFN12” (The Broad Institute, Inc., priority 2015, dated 2021).

Molecular target: PDE3A (Homo sapiens, UniProt Q14432)
Test: Linker-affinity purification of molecular target of DNMDP and immunoblotting
Format: binding
Parameters: Immunoprecipitation of endogenous PDE3A in HeLa cells; endogenous in cells; host or cells: HeLa
Details: HeLa cell lysate, competitor 10 μM, immunoblot for PDE3A
Protocol: To identify the molecular target of DNMDP, an affinity purification was performed using an (R)-des-nitro-DNMDP solid-phase tethered linker analogue (FIG. 10A) incubated with HeLa cell lysate. […] It was competed for the molecular target by adding either an excess of trequinsin or separate enantiomers of DNMDP, where only the (R)-enantiomer was cytotoxic. […] Binding of PDE3A to the linker analogue was blocked by both trequinsin and (R)-DNMDP, but not by the non-cytotoxic enantiomer (S)-[…]. 9C). Thus both trequinsin and (R)-DNMDP prevented the binding of PDE3A to the tethered DNMDP analogue, and it was concluded that both molecules bind PDE3A directly. HeLa cells were washed with ice-cold PBS before lysed with NP-40 lysis buffer (150 mM NaCl, 10% glycerol, 50 mM Tris-Cl pH 8.0, 50 mM MgCl2, 1% NP-40) supplemented with EDTA-free protease inhibitors (Roche) and phosphatase inhibitor mixtures I and II (Calbiochem). […] Samples were washed three times with lysis buffer containing corresponding compound concentrations of 10 μM. Proteins bound to Affi-Gel 102 resin were reduced, denatured, and separated using Tris-Glycine gels (Novex) and transferred to nitrocellulose membranes using the iBlot transfer system (Novex). Membranes were incubated overnight at 4° C. with primary antibodies against PDE3A (1:1000, Bethyl). […]

Chain of PDE3A (Q14432 whole entry): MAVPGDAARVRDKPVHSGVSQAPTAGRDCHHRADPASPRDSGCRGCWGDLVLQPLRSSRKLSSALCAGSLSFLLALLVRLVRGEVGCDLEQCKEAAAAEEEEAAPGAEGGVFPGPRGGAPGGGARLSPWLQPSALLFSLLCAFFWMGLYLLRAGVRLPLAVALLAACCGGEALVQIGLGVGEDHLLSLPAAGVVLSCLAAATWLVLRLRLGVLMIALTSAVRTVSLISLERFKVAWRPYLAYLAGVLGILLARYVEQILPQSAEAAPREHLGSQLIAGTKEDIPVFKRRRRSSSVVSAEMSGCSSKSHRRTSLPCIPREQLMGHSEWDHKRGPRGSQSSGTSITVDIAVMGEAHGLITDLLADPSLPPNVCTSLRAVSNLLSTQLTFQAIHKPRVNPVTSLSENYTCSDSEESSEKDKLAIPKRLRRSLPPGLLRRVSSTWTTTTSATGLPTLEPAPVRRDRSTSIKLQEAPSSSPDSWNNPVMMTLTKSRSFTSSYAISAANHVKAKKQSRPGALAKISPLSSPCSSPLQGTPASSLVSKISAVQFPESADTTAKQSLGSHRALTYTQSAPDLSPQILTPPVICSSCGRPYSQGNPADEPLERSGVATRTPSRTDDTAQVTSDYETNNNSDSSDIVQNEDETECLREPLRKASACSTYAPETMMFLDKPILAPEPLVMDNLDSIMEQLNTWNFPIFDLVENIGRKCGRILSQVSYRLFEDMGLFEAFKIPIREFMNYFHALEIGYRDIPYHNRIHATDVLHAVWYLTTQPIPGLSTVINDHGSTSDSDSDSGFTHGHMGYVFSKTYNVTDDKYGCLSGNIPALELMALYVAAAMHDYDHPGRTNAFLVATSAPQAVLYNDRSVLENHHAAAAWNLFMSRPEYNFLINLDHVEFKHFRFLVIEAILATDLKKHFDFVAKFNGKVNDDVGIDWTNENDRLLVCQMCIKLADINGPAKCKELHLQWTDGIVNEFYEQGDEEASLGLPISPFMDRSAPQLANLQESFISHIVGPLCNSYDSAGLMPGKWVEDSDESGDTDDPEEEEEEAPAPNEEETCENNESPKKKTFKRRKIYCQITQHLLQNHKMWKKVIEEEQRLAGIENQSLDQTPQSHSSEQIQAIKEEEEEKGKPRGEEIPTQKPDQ

In the case of COc1cc2c(cc1OC)-c1c/c(=N\c3c(C)cc(C)cc3C)n(C)c(=O)n1CC2 [trequinsin, 9,10-dimethoxy-3-methyl-2-(2,4,6-trimethylphenyl)imino-6,7-dihydropyrimido[6,1-a]isoquinolin-4-one], the “blocking of binding of PDE3A to the tethered linker analogue” value is reported as “blocked”.
